Key:
MSTO211H and NCI-H2052 = experiment: ATPlite vitality assay, extract in association with pemetrexed, MPM lines; type: cell-based, human; settings: MPM cells, 72 h
Procedure: Cell lines MSTO211H and NCI-H2052 were used to evaluate the effects of the association of extract of Cynara scolymus+anti-tumour drug.
(§1) The assay shown in FIG. 10 was performed using ATPlite™ assay (Perkin Elmer) in accordance with the producer's instructions.
(§2) A solution of water for injectable solutions and ethanol at a concentration of 1:1 was used in the same volumes used for the treatments.
(§3) pemetrexed (Alimta, Lilly) diluted in accordance with the producer's instructions.
(§4) The concentrations of the assayed compound are plotted on the abscissa, whereas the cell vitality expressed in percentage is plotted on the ordinate.

untransformed HMC cells = experiment: ATPlite vitality assay, extract in association with pemetrexed, HMC; type: cell-based, human; settings: non-tumour HMC cells
Procedure: as §1, §2, §3, §4

STAT3 [1] = target: T1, STAT3 (Homo sapiens, UniProt P40763); experiment: Western Blot of STAT3 phosphorylation in KARPAS cells; type: cell-based; design: The cell line DU145 expresses pStat3 in a constitutive manner; endogenous in cells; host or cells: DU-145 (human prostate carcinoma, ATCC HTB-81); settings: read-out: EC50 inhibition of the phosphorylation of STAT3
Procedure: (§5) The cells were lysed in ice for 30 min in lysis buffer NP40 (50 mM Tris-HCl pH 7.4, 150 mM NaCl, 1% NP-40, 1 mM EGTA, 1 mM EDTA) complemented with inhibitors of protease and phosphatase (5 mM PMSF, 3 mM NaF, 1 mM DTT, 1 mM NaVO4). Equal amounts of total extracts of protein (30 μg) were broken down by means of denaturing electrophoresis (SDS-PAGE) in 8% polyacrylamide gel and transferred for 2 hours on nitrocellulose membrane. The membranes were blocked with a 5% solution of milk dissolved in TBS-Tween_20 0.05% for 1 hour and incubated with the specific primary antibodies. The following primary antibodies were used: anti-beta actin (A-2228, SIGMA), anti-pSTAT3 (Tyr-705) (sc8059, Santa Cruz) and anti-STAT3 (sc7179, Santa Cruz). The secondary antibodies were peroxidase-conjugated (Santa Cruz), and ECL reagents (Amersham, GE Healthcare. Piscataway, N.J., USA) were used for the chemiluminescence.
(§6) 2. The Extract of Cynara scolymus and Cynaropicrin Inhibit the Activation of STAT3 in DU-145 Cells and in KARPAS Cells:
(§7) 200 μg/ml of extract that contains 0.181% of cynaropricrin contain 1.2 μM of cynaropricrin.

GSH = experiment: Intracellular analyses of GSH; type: cell-based; settings: 12.5, 25, 50 μM
Procedure: The intracellular concentration of GSH was evaluated by means of a colorimetric method. The cell extract, deproteinised by means of 10% trichloroacetic acid, was treated with dithio nitrobenzene (DTNB), and the quantity of TNB, which is released following the reaction with GSH, was evaluated by analysing the absorbance at 412 nm.

STAT3 [2] = experiment: Glutathionylation of STAT3; type: cell-based; settings: 12 microM and 25 μM
Procedure: STAT3 was immunoprecipitated by incubating the protein cell extract overnight with an anti-STAT3 antibody. The proteins obtained were separated by means of SDS-PAGE in non-reducing conditions and were transferred on PVDF membrane. The glutathionylated STAT3 was recognised using an anti-GSH antibody.

STAT3 [3] = target: T1, STAT3; experiment: EMSA of STAT3 binding to DNA in KARPAS cells; type: cell-based; design: endogenous in cells; settings: read-out: EC50 inhibition of the ability of STAT3 to bind to DNA
[4] = system: confluent prostatic adenocarcinoma cell line DU-145; experiment: WST-1 cell vitality assay, confluent DU-145; type: cell-based, human
Procedure: (§8) Cytotoxicity was assayed using the WST assay (WSTs=water soluble tetrazolium salts), and utilises the ability of mitochondrial dehydrogenases to separate the tetrazole ring from the yellow-coloured WST molecule (tetrazolium salt) to give an orange formazan salt. The amount of formazan produced following the treatment of the cells with the substances being tested is measured using spectrophotometry and is proportional to the number of living cells. WST-1 and in particular WST-8 (2-(2-methoxy-4-nitrophenyl)-3-(4-nitrophenyl)-5-(2,4-disulfophenyl)-2H-tetrazolium) are advantageous with respect to MTT because they reduce outside the cells, in combination with PMS as electron mediator, to produce water-soluble formazan.
6.2 WST-1 assay on cell line DU145 at 24 and 48 hours with 0-100-200-300-400-500-600 μg/ml of extract of Cynara scolymus (cynaropicrin=1.361%), which inhibits, in a time-dependent and dose-dependent manner, the vitality of the DU-145 cells.
6.3 WST-1 assay on cell line DU145 at 24 and 48 hours with cynaropicrin 0-10-20-30-40-50-60 μM inhibits, in a dose-dependent and time-dependent manner, the vitality of DU-145 cells.

STAT3 [5] = target: T1, STAT3; experiment: EMSA of STAT3 binding to DNA in DU-145 cells; type: cell-based; design: The cell line DU145 expresses pStat3 in a constitutive manner; endogenous in cells; host or cells: DU-145 (human prostate carcinoma, ATCC HTB-81); settings: read-out: EC50 inhibition of the ability of STAT3 to bind to DNA
STAT3 [6] = experiment: STAT3 phosphorylation after pre-treatment with glutathione ethylene ester; type: cell-based
[7] = system: human prostate tumour cell line DU145; experiment: WST-1 vitality assay in association with chemotherapeutic agents; type: cell-based
Procedure: as §8
The assays were carried out in parallel with variable doses of cynaropicrin in place of the extract to compare the efficacy of the extract and that of cynaropicrin.

STAT3 [8] = target: T1, STAT3; experiment: Western Blot of STAT3 phosphorylation in DU-145 cells; type: cell-based; design: The cell line DU145 expresses pStat3 in a constitutive manner; endogenous in cells; host or cells: DU-145 (human prostate carcinoma, ATCC HTB-81); settings: read-out: EC50 inhibition of the phosphorylation of STAT3
Procedure: as §5, §6, §7

T1 sequence (P40763 whole entry): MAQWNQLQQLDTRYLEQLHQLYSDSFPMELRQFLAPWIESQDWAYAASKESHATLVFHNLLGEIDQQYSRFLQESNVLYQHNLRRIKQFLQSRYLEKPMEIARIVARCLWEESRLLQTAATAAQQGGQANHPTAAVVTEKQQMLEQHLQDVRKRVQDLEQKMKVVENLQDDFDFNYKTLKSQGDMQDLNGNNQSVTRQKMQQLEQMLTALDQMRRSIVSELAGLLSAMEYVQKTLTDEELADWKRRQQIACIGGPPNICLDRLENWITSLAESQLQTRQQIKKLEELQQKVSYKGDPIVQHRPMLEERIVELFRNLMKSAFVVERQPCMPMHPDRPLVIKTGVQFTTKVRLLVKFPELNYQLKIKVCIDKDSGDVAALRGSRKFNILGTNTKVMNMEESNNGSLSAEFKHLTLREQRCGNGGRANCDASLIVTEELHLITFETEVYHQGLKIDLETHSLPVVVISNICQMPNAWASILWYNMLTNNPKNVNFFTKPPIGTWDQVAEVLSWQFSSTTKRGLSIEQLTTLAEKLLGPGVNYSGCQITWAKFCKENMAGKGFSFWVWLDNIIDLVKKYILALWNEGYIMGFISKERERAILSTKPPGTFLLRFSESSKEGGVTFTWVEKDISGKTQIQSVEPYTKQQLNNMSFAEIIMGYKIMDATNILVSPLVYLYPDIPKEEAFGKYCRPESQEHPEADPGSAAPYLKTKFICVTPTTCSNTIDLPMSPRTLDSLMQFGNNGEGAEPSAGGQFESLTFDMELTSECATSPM

Nc1nc2[nH]cc(CCc3ccc(C(=O)N[C@@H](CCC(=O)O)C(=O)O)cc3)c2c(=O)[nH]1 [PMTX, pemetrexed]
cell vitality, pemetrexed alone (MSTO211H and NCI-H2052): cytotoxic for the MPM cells
cell vitality, pemetrexed alone (untransformed HMC cells): highly toxic for the non-tumour cells

C=C(CO)C(=O)O[C@H]1CC(=C)[C@@H]2C[C@H](O)C(=C)[C@@H]2[C@H]2OC(=O)C(=C)[C@@H]21 [cynaropicrin]
EC50 (STAT3 [1]): 25 µM
intracellular concentration of GSH (GSH): time-dependent and dose-dependent reduction of the intracellular concentration of GSH
glutathionylation of STAT3 (STAT3 [2]): determines the glutathionylation of STAT3
EC50 (STAT3 [3]): 25 µM
reduction of vitality ([4]; confluent DU-145, 50 μM for 48 hours): approximately 90%
cell vitality ([4]; confluent DU-145, cynaropicrin 0-70 μM, 24 or 48 hours): inhibits cell vitality in a time-dependent and dose-dependent manner
EC50 (STAT3 [5]): 25 µM
effect of restoration of GSH on inhibition of STAT3 phosphorylation (STAT3 [6]): reverses the ability of cynaropicrin to inhibit the phosphorylation of STAT3
molarity of cynaropicrin needed to reduce cell vitality below 20%, relative to that present in the artichoke extract ([7]; DU145, with cisplatinum 15 μg/ml): forty times greater
molarity of cynaropicrin needed to reduce cell vitality below 20%, relative to that present in the artichoke extract ([7]; DU145, with doxorubicin 2 μg/ml): approximately twenty-five times greater
EC50 (STAT3 [8]): 25 µM

— patent publication US10383905B2, “Extract of Cynara ssp. and uses thereof” (ABOCA S.P.A. SOCIETA' AGRICOLA, priority 2013, dated 2019)
